From patent US12168673B2 (Mitopower, Inc., priority 2022, dated 2024)

Tests used:
[1] = Stability in solutions (pH range, simulated gastric fluid, simulated intestinal fluid); assay type: physicochemical
Protocol: 1 mg/ml solutions of compound 100 were prepared in each buffer, diluted to 0.1 mg/ml in methanol at each time point and analyzed as follows: Gemini C-18, 250×4.6 mm, 5 im, Mobile Phase: Methanol Isocratic Flow Rate: 0.4 mL/min.

[2] = Solid state stability (purity by UPLC); assay type: physicochemical
Protocol: Compounds 100, 101 and 102 were kept in glass vials at three different locations at temperatures of […], 2-8° C. and −20° C. in order to assess solid state stability at room temperature, refrigerated conditions and in a deep freezer. The compounds from these vials were assessed for purity by UPLC at three different timepoints 0 hrs, 24 hrs and 48 hrs. Table 2 depicts the results obtained for solid state stability at 25° C., 2-8° C. and −20° C. respectively. Purity measurements were made at 0 hrs, 24 hours and 48 hours.

[3] = Caco-2 permeability assay; conditions: human
Source text: The endpoint measured is the intestinal permeability expressed as apparent permeability—Papp value. All permeability values are represented as ×10^−6 cm/sec.

Human Plasma Protein = assay: Human plasma protein binding (RED dialysis); conditions: human, plasma
Protocol: The test compounds were weighed and prepared as 10 mM stocks in 100% DMSO. 10 μM is the final test concentration for all compounds.
The samples were prepared by spiking test compound(s) in plasma at 10 μM final concentration. 200 μL of plasma containing the test compound was added into the donor well (RED Chamber) of the insert. Simultaneously 350 μL of dialysis buffer (1×PBS) was added into the receiver well (white chamber). Two measurements were made for each test compound. The plate was covered with a sealer and incubated at 37° C. degrees on an orbital shaker at 500 rpm for 5 hours.
After incubation, 25 μl of plasma (RED chamber) and 25 μl of buffer (white chamber) samples were separately collected into separate centrifugation tubes. Plasma and buffer samples were precipitated with 200 μL of 100% acetonitrile containing internal standards. 25 μl of T0 (T Zero) plasma samples (samples before 5 hours incubation) were collected (To samples were processed immediately after the preparation of plasma working stock solution. These samples serve as a measure for calculating the percentage recovery of the test compound and precipitated using 100% acetonitrile containing internal standards). The samples were vortexed at 1000 rpm for 5 min and centrifuged at 4000 rpm for 10 min. The supernatant was diluted 2-fold with water and injected into LC-MS/MS.
The % of Plasma bound/unbound fraction was calculated by the following equation: % Unbound or % free=100*(Fc/Tc); % Recovery=100 (Fc+Tc)/[…] where Tc=Total compound concentration as determined by the calculated concentration on the plasma side of the membrane (concentration in plasma chamber), Fc=Free compound concentration as determined by the calculated concentration on the buffer side of the membrane (concentration in buffer chamber) and T0=Total compound concentration as determined before dialysis.

human hepatocytes = assay: Human hepatocyte stability

COC(=O)[C@@H](C)NP(=O)(OC[C@H]1OC(OC(=O)c2cccnc2)[C@H](O)[C@@H]1O)Oc1ccccc1 (stereo partly drawn) [Compound 101, (3R, 4S, 5R)-3,4-dihydroxy-5-(((((1-methoxy-1-oxopropan-2-yl)amino)(phenoxy)phosphoryl)oxy)methyl)tetrahydrofuran-2-yl nicotinate]
% remaining ([1]; SGF (simulated gastric fluid), 0 h): 90.17% | % remaining ([1]; SGF (simulated gastric fluid), 1 week): 3.41% | % remaining ([1]; SGF (simulated gastric fluid), 1 h): 88.8% | % remaining ([1]; SGF (simulated gastric fluid), 2 h): 87.74% | % remaining ([1]; SGF (simulated gastric fluid), 4 h): 83.09% | % remaining ([1]; SGF (simulated gastric fluid), 8 h): 77.12% | % remaining ([1]; SGF (simulated gastric fluid), 24 h): 41.98% | % remaining ([1]; SGF (simulated gastric fluid), 48 h): 29.17% | % remaining ([1]; SIF (simulated intestinal fluid), 0 h): 91.59% | % remaining ([1]; SIF (simulated intestinal fluid), 1 week): 76.58% | % remaining ([1]; SIF (simulated intestinal fluid), 1 h): 91.12% | % remaining ([1]; SIF (simulated intestinal fluid), 2 h): 91.16% | % remaining ([1]; SIF (simulated intestinal fluid), 4 h): 90.07% | % remaining ([1]; SIF (simulated intestinal fluid), 8 h): 90.28% | % remaining ([1]; SIF (simulated intestinal fluid), 24 h): 85.29% | % remaining ([1]; SIF (simulated intestinal fluid), 48 h): 85.54% | % remaining ([1]; pH 1, 0 h): 88.03% | % remaining ([1]; pH 1, 1 week): 1.01% | % remaining ([1]; pH 1, 1 h): 85.91% | % remaining ([1]; pH 1, 2 h): 85.4% | % remaining ([1]; pH 1, 4 h): 81.82% | % remaining ([1]; pH 1, 8 h): 74.41% | % remaining ([1]; pH 1, 24 h): 50.26% | % remaining ([1]; pH 1, 48 h): 16.35% | % remaining ([1]; pH 2, 0 h): 88.86% | % remaining ([1]; pH 2, 1 week): 13.5% | % remaining ([1]; pH 2, 1 h): 88.82% | % remaining ([1]; pH 2, 2 h): 87.46% | % remaining ([1]; pH 2, 4 h): 85.16% | % remaining ([1]; pH 2, 8 h): 81.19% | % remaining ([1]; pH 2, 24 h): 63.31% | % remaining ([1]; pH 2, 48 h): 35.33% | % remaining ([1]; pH 4, 0 h): 82.98% | % remaining ([1]; pH 4, 1 week): 37.7% | % remaining ([1]; pH 4, 1 h): 83.96% | % remaining ([1]; pH 4, 2 h): 82.79% | % remaining ([1]; pH 4, 4 h): 81.96% | % remaining ([1]; pH 4, 8 h): 79.6% | % remaining ([1]; pH 4, 24 h): 70.75% | % remaining ([1]; pH 4, 48 h): 69.7% | % remaining ([1]; pH 6, 0 h): 88.78% | % remaining ([1]; pH 6, 1 week): 73.66% | % remaining ([1]; pH 6, 1 h): 88.01% | % remaining ([1]; pH 6, 2 h): 87.98% | % remaining ([1]; pH 6, 4 h): 87.55% | % remaining ([1]; pH 6, 8 h): 86.2% | % remaining ([1]; pH 6, 24 h): 86.09% | % remaining ([1]; pH 6, 48 h): 73.74% | % remaining ([1]; pH 7.4, 0 h): 88.58% | % remaining ([1]; pH 7.4, 1 week): 67.37% | % remaining ([1]; pH 7.4, 1 h): 88.62% | % remaining ([1]; pH 7.4, 2 h): 88.48% | % remaining ([1]; pH 7.4, 4 h): 87.24% | % remaining ([1]; pH 7.4, 8 h): 86.71% | % remaining ([1]; pH 7.4, 24 h): 86.62% | % remaining ([1]; pH 7.4, 48 h): 79.75% | % remaining ([1]; pH 9, 0 h): 90.15% | % remaining ([1]; pH 9, 1 week): 0% | % remaining ([1]; pH 9, 1 h): 80.81% | % remaining ([1]; pH 9, 2 h): 70.65% | % remaining ([1]; pH 9, 4 h): 48.75% | % remaining ([1]; pH 9, 8 h): 26.14% | % remaining ([1]; pH 9, 24 h): 4.45% | % remaining ([1]; pH 9, 48 h): 0% | Solid State Stability (% Purity) ([2]; 2-8° C., 0 hr): 93.20% | Solid State Stability (% Purity) ([2]; 2-8° C., 24 hr): 90.57% | Solid State Stability (% Purity) ([2]; 2-8° C., 48 hr): 90.59% | Solid State Stability (% Purity) ([2]; 25° C., 0 hr): 93.20% | Solid State Stability (% Purity) ([2]; 25° C., 24 hr): 89.68% | Solid State Stability (% Purity) ([2]; 25° C., 48 hr): 90.66% | Solid State Stability (% Purity) ([2]; −20° C., 0 hr): 93.20% | Solid State Stability (% Purity) ([2]; −20° C., 24 hr): 90.72% | Solid State Stability (% Purity) ([2]; −20° C., 48 hr): 90.63% | Papp A→B [3]: 0.2 ×10⁻⁶ cm/s | Papp B→A [3]: 6.1 ×10⁻⁶ cm/s | efflux ratio [3]: 39 | recovery ([3]; Caco-2, % Recovery A to B): 86.5% | recovery ([3]; Caco-2, % Recovery B to A): 87.9% | Remarks (binding class) (Human Plasma Protein): Medium binding | clearance in human hepatocytes (in words) (human hepatocytes): high clearance | % Parent Remaining (human hepatocytes; 0 mins): 100% | % Parent Remaining (human hepatocytes; 15 mins): 43% | % Parent Remaining (human hepatocytes; 30 mins): 20.1% | % Parent Remaining (human hepatocytes; 60 mins): 6.4% | % Parent Remaining (human hepatocytes; 90 mins): 2.0%
